Assays:
E. coli PQ37 [1] = test: Primary DNA damage test (SOS-chromotest); assay type: cell-based; conditions: all concentrations tested (7.81-1000 μg mL^−1)
Method: The SOS-chromotest in E. coli PQ37 was used to determine the potential for DAA and AA to induce primary DNA damage. This test was carried out according to the previously developed method (Fish et al., 1987). […] E. coli PQ37 was incubated in LB medium in a 96-well plate at 37° C. in the presence of DAA or AA for 2 hours. The DAA and AA concentrations tested were 7.81, 15.6, 31.2, 62.5, 125, 250, 500, and 1000 μg mL^−1. Samples were evaluated in triplicate. […] Induction factors less than two indicate an absence of genotoxic activity.

[2] = Thermal stability of DAA under pasteurization conditions (HPLC); assay type: physicochemical; conditions: 90° C. at pH 3.3 for one minute
Method: Tahitian noni fruit puree as used in this example is the mashed whole fruit, excluding seeds and pericarp. The fruits were originally collected from the Tahitian Islands. One gram of the puree was diluted with 5 mL of H2O-MeOH (1:1) and mixed thoroughly. The solution was then filtered through a nylon microfilter (0.45-μm pore size); the solution was collected into a 5 mL volumetric flask for HPLC analysis. Four batches of noni puree were analyzed in the experiments. Voucher specimens of the noni fruit puree are deposited in our lab. To test iridoid stability, a DAA solution of 0.5 mg/mL was prepared with MeOH. This solution was heated in a water-bath at 90° C. for 1 min, cooled to room temperature, and analyzed by HPLC.
Noni fruit juice is usually subjected to heat pasteurization during commercial processing. Pasteurization is usually employed in noni industry, i.e., heating up to 87.7° C. for several seconds. In this study, the stability of DAA was conducted. DAA was exposed to 90° C. at pH 3.3 for one minute to determine its thermal stability at acidic conditions.

E. coli PQ37 [3] = assay type: cell-based; conditions: 250 ug mL^−1 iridoid plus 1.25 ug mL^−1 4NQO
Method: The SOS-chromotest in E. coli PQ37 was used to determine the potential for iridoids in noni fruit from French Polynesia to prevent primary DNA damage. E. coli PQ37 was incubated at 37° C. in the presence of deacetylasperulosidic acid and asperulosidic acid at a concentration of 250 ug mL^−1 in a 96-well plate. Replicate samples were evaluated.

Compound	induction of SOS repair versus blank (E. coli PQ37 [1])	DAA content before and after heating (thermal stability) [2]	induction factors (mean±standard deviation) (E. coli PQ37 [3])
CC(=O)OCC1=C[C@H](O)[C@@H]2C(C(=O)O)=CO[C@@H](O[C@@H]3O[C@H](CO)[C@@H](O)[C@H](O)[C@H]3O)[C@H]12 [AA, asperulosidic acid]	did not induce any SOS repair		
O=C(O)C1=CO[C@@H](O[C@@H]2O[C@H](CO)[C@@H](O)[C@H](O)[C@H]2O)[C@@H]2C(CO)=C[C@H](O)[C@H]12 [DAA, deacetylasperulosidic acid]	did not induce any SOS repair	no difference in the DAA contents before and after heating	0.98±0.02
